System: MOLM-13
Test: Antiproliferative activity against human MOLM-13 cells assessed as reduction in cell viability incubated for 72 hrs by CellTiter-Glo assay
Assay type: functional, cell-based
Conditions: MOLM-13, 72 h

| Structure (SMILES) | IC50 |
| --- | --- |
| Cc1cn(-c2cc(O[C@@H](C)C(F)(F)F)c(C(=O)Nc3c(F)cccc3Cl)cc2F)nc1C(C)(C)O | 0.07 nM |
| Cc1cn(-c2cc(O[C@@H](C)C(F)(F)F)c(C(=O)Nc3c(F)cccc3Cl)cc2F)nc1[C@@H](C)O | 0.08 nM |
| Cc1cn(-c2cc(O[C@@H](C)C(F)(F)F)c(C(=O)Nc3c(C)n[nH]c3Cl)cc2F)nc1[C@@H](C)O | 0.26 nM |
| Cc1cn(-c2cc(O[C@@H](C)C(F)(F)F)c(C(=O)Nc3c(C)n[nH]c3Cl)cc2F)nc1C(C)(C)O | 0.09 nM |
| Cc1cn(-c2cc(O[C@@H](C)C(F)(F)F)c(C(=O)Nc3c(F)cccc3Cl)cc2F)nc1[C@H](C)O | 0.03 nM |
| Cc1cn(-c2cc(O[C@@H](C)C(F)(F)F)c(C(=O)Nc3c(C)n[nH]c3Cl)cc2F)nc1[C@H](C)O | 0.21 nM |

Source: ChEMBL document CHEMBL5360604, “Novel Dihydroorotate Dehydrogenase Inhibitors for Treating Acute Myelogenous Leukemia” (ACS Med Chem Lett, 2023)
